Patent US20060046968A1, “Prodrug substituted benzoxazoles as estrogenic agents” (priority 2004, published 2006)
Marks after values point to notes of the source that are not given here.

Legend:
Format in all cases: in vivo
[1] = test system: Sexually immature Sprague-Dawley rats; test: Rat uterotrophic test procedure (Procedure 1); conditions: compound 2 mg/rat + 17α-ethinyl, 17β-estradiol 0.06 μg/rat s.c. (antagonist mode)
[2] = test system: ovariectomized Sprague-Dawley rats; test: Bone mineral density in the ovariectomized rat (pQCT, proximal tibia); conditions: compound 10 mg/kg s.c.; 5 weeks
[3] = test system: Male HLA-B27 rats; test: HLA-B27 rat model of arthritis: joint scores; conditions: Study 1, oral 20 mg/kg once per day (10 mg/kg earlier)
[4] = test system: Male HLA-B27 rats; test: HLA-B27 rat model of arthritis: joint histology; conditions: Study 1; oral 46 days; 10 mg/kg days 1-24, then 20 mg/kg
Protocol: At the end of the study, the rats are euthanized with CO2, hindlimbs removed at necropsy and fixed in 10% buffered formalin, and the tarsal joints decalcified and embedded in paraffin. Histologic sections are stained with Hematoxylin and Eosin or […] Green stain. Slides are coded so that the examiner is blinded to the treatment groups. Synovial tissue from tarsal joints is evaluated based on synovial hyperplasia, inflammatory cell infiltration, and pannus formation [Poole and Coombs, International Archives of Allergy & Applied Immunology 54: 97-113 (1977)], as outlined below. [table] […] [table] Representative metabolites of compounds of the invention were evaluated in the HLA-B27 rat standard pharmacological test procedure, which emulates arthritis in humans. The following briefly describes the procedure used and results obtained. Male HLA-B27 rats were obtained from Taconic and provided unrestricted access to a food (PMI® LabDiet 5001) and water. Joint scores and histology were evaluated as described above for the Lewis rat model of adjuvant-induced arthritis. Study 1: […]

[5] = test system: Sexually immature 129 SvE mice; test: Mouse uterotrophic test procedure (Procedure 2); conditions: compound 50 mg/kg s.c., days 22-25
[6] = test system: Male HLA-B27 rats; test: HLA rat test for inflammatory bowel disease: stool character (3 = diarrhea; 2 = soft stool; 1 = normal stool)
[7] = test system: Male HLA-B27 rats; test: HLA-B27 rat test for inflammatory bowel disease: histological scoring of colon; conditions: for Fibrosis (0-2) / Inflammation (0-3) / Lesion depth (0-2) / Total score / Ulceration (0-2): colon histology
Protocol: Representative metabolites of compounds of the invention were evaluated in the HLA rat standard pharmacological test procedure, which emulates inflammatory bowel disease in humans. The following briefly describes the procedure used and results obtained. […] Louis) and water. Stool quality was observed daily and graded according to the following scale: Diarrhea=3; soft stool=2; normal stool=1. At the end of the study, serum was collected and stored at −70° C. A section of colon was prepared for histological analysis and an additional segment was analyzed for myeloperoxidase activity. In Study A, rats (22-26 weeks old) were dosed subcutaneously once per day for seven days with one of the regimens listed below. […] Histological analysis. Colonic tissue was immersed in 10% neutral buffered formalin. Each specimen of colon was separated into four samples for evaluation. The formalin-fixed tissues were processed in a Tissue-Tek® vaccum infiltration processor (Miles, Inc; West Haven, Conn.) for paraffin embedding. The samples were sectioned at 5 μm and then stained with hematoxylin and eosin (H&E) for blinded histological evaluations using a scale modified after Boughton-Smith. After the scores were completed, the samples were unblinded, and data were tabulated and analyzed by ANOVA linear modeling with multiple mean comparisons. Sections of colonic tissue were evaluated for several disease indicators and given relative scores.

[8] = Study C, oral 7 weeks, 10 mg/kg days 1-24, then 20 mg/kg

C=Cc1cc(O)cc2nc(-c3ccc(O)c(F)c3)oc12 [Example 24, 2-(3-FLUORO-4-HYDROXYPH ENYL)-7-VI NYL-1,3-BENZOXAZOL-5-OL]
mean uterine weight ± SEM [1]: 80.7 ± 5.3 mg
Total Bone Mineral Density (mean ± SEM) [2]: 517.56 ± 9.67 mg/mL
Trabecular Bone Mineral Density (mean ± SEM) [2]: 321.16 ± 9.04 mg/mL
Joint inflammation score ([3]; Day 29): 1.5
Joint inflammation score ([3]; Day 30): 0.5
Joint inflammation score ([3]; Day 31): 0.5
Joint inflammation score ([3]; Day 32): 1.25
Joint inflammation score ([3]; Day 33): 2
Joint inflammation score ([3]; Day 34): 2.25
Joint inflammation score ([3]; Day 35): 2
Joint inflammation score ([3]; Day 36): 2.25
Joint inflammation score ([3]; Day 37): 2
Joint inflammation score ([3]; Day 38): 2.75
Joint inflammation score ([3]; Day 39): 2.25
Joint inflammation score ([3]; Day 40): 1.75
Joint inflammation score ([3]; Day 41): 2
Joint inflammation score ([3]; Day 42): 2.5
Joint inflammation score ([3]; Day 43): 4.75
Joint inflammation score ([3]; Day 44): 3
Joint inflammation score ([3]; Day 45): 2.75
Joint inflammation score ([3]; Day 46): 3.25
Mankin score (mean ± SD) [4]: 3.5 ± 1.8
Synovitis score (mean ± SD) [4]: 3.17 ± 0.3
mean uterine weight ± SEM [5]: 10.7 ± 0.9 mg
Stool quality ([6]; Study A, 50 mg/kg s.c.): Stool quality was improved
Stool Character (group's average score) ([6]; Study A, 50 mg/kg s.c. once per day, Day 1): 2.8
Stool Character (group's average score) ([6]; Study A, 50 mg/kg s.c. once per day, Day 2): 2
Stool Character (group's average score) ([6]; Study A, 50 mg/kg s.c. once per day, Day 3): 1.8
Stool Character (group's average score) ([6]; Study A, 50 mg/kg s.c. once per day, Day 4): 1.6
Stool Character (group's average score) ([6]; Study A, 50 mg/kg s.c. once per day, Day 5): 1.6
Stool Character (group's average score) ([6]; Study A, 50 mg/kg s.c. once per day, Day 6): 1.4
Stool Character (group's average score) ([6]; Study C, oral 10 mg/kg once per day, Day 1): 2.75
Stool Character (group's average score) ([6]; Study C, oral 10 mg/kg once per day, Day 2): 2.75
Stool Character (group's average score) ([6]; Study C, oral 10 mg/kg once per day, Day 3): 2.75
Stool Character (group's average score) ([6]; Study C, oral 10 mg/kg once per day, Day 4): 2.5
Stool Character (group's average score) ([6]; Study C, oral 10 mg/kg once per day, Day 5): 2
Stool Character (group's average score) ([6]; Study C, oral 10 mg/kg once per day, Day 6): 2.5
Stool Character (group's average score) ([6]; Study C, oral 10 mg/kg once per day, Day 7): 2.25
Stool Character (group's average score) ([6]; Study C, oral 10 mg/kg once per day, Day 8): 2.25
Stool Character (group's average score) ([6]; Study C, oral 10 mg/kg once per day, Day 9): 2.25
Stool Character (group's average score) ([6]; Study C, oral 10 mg/kg once per day, Day 10): 2.25
Stool Character (group's average score) ([6]; Study C, oral 10 mg/kg once per day, Day 11): 2.25
Stool Character (group's average score) ([6]; Study C, oral 10 mg/kg once per day, Day 12): 1.75
Stool Character (group's average score) ([6]; Study C, oral 10 mg/kg once per day, Day 13): 2.25
Stool Character (group's average score) ([6]; Study C, oral 10 mg/kg once per day, Day 14): 2
Stool Character (group's average score) ([6]; Study C, oral 10 mg/kg once per day, Day 15): 1.75
Stool Character (group's average score) ([6]; Study C, oral 10 mg/kg once per day, Day 16): 1.75
Stool Character (group's average score) ([6]; Study C, oral 10 mg/kg once per day, Day 17): 1.75
Stool Character (group's average score) ([6]; Study C, oral 10 mg/kg once per day, Day 18): 1.75
Stool Character (group's average score) ([6]; Study C, oral 10 mg/kg once per day, Day 19): 1.75
Stool Character (group's average score) ([6]; Study C, oral 10 mg/kg once per day, Day 20): 1.75
Stool Character (group's average score) ([6]; Study C, oral 10 mg/kg once per day, Day 21): 1.75
Stool Character (group's average score) ([6]; Study C, oral 10 mg/kg once per day, Day 22): 1.75
Stool Character (group's average score) ([6]; Study C, oral 10 mg/kg once per day, Day 23): 1.75
Stool Character (group's average score) ([6]; Study C, oral 10 mg/kg once per day, Day 24): 2
Stool Character (group's average score) ([6]; Study C, oral 20 mg/kg once per day (10 mg/kg earlier), Day 25): 2
Stool Character (group's average score) ([6]; Study C, oral 20 mg/kg once per day (10 mg/kg earlier), Day 26): 2.25
Stool Character (group's average score) ([6]; Study C, oral 20 mg/kg once per day (10 mg/kg earlier), Day 27): 1.75
Stool Character (group's average score) ([6]; Study C, oral 20 mg/kg once per day (10 mg/kg earlier), Day 28): 1.75
Stool Character (group's average score) ([6]; Study C, oral 20 mg/kg once per day (10 mg/kg earlier), Day 29): 1.5
Stool Character (group's average score) ([6]; Study C, oral 20 mg/kg once per day (10 mg/kg earlier), Day 30): 1.5
Stool Character (group's average score) ([6]; Study C, oral 20 mg/kg once per day (10 mg/kg earlier), Day 31): 1.5
Stool Character (group's average score) ([6]; Study C, oral 20 mg/kg once per day (10 mg/kg earlier), Day 32): 1.5
Stool Character (group's average score) ([6]; Study C, oral 20 mg/kg once per day (10 mg/kg earlier), Day 33): 1.75
Stool Character (group's average score) ([6]; Study C, oral 20 mg/kg once per day (10 mg/kg earlier), Day 34): 1.75
Stool Character (group's average score) ([6]; Study C, oral 20 mg/kg once per day (10 mg/kg earlier), Day 35): 1.5
Stool Character (group's average score) ([6]; Study C, oral 20 mg/kg once per day (10 mg/kg earlier), Day 36): 1.5
Stool Character (group's average score) ([6]; Study C, oral 20 mg/kg once per day (10 mg/kg earlier), Day 37): 1.25
Stool Character (group's average score) ([6]; Study C, oral 20 mg/kg once per day (10 mg/kg earlier), Day 38): 1.75
Stool Character (group's average score) ([6]; Study C, oral 20 mg/kg once per day (10 mg/kg earlier), Day 39): 1.75
Stool Character (group's average score) ([6]; Study C, oral 20 mg/kg once per day (10 mg/kg earlier), Day 40): 1.5
Stool Character (group's average score) ([6]; Study C, oral 20 mg/kg once per day (10 mg/kg earlier), Day 41): 1.75
Stool Character (group's average score) ([6]; Study C, oral 20 mg/kg once per day (10 mg/kg earlier), Day 42): 1.5
Stool Character (group's average score) ([6]; Study C, oral 20 mg/kg once per day (10 mg/kg earlier), Day 43): 1.5
Stool Character (group's average score) ([6]; Study C, oral 20 mg/kg once per day (10 mg/kg earlier), Day 44): 1.5
Stool Character (group's average score) ([6]; Study C, oral 20 mg/kg once per day (10 mg/kg earlier), Day 45): 1.25
Stool Character (group's average score) ([6]; Study C, oral 20 mg/kg once per day (10 mg/kg earlier), Day 46): 1.25
Total disease score versus vehicle ([7]; Study C, oral): significantly reduced total disease score
Fibrosis (0-2), mean ± SD [7, 8]: 0*
Inflammation (0-3), mean ± SD [7, 8]: 0.69 ± 0.24
Lesion depth (0-2), mean ± SD [7, 8]: 0*
Total score, mean ± SD [7, 8]: 0.69 ± 0.24
Ulceration (0-2), mean ± SD [7, 8]: 0*
Fibrosis (0-2) ([7]; 1 mg/kg s.c., second study): 0.75
Inflammation (0-3) ([7]; 1 mg/kg s.c., second study): 1.63*
Lesion depth (0-2) ([7]; 1 mg/kg s.c., second study): 0.88*
Total score ([7]; 1 mg/kg s.c., second study): 4.4*
Ulceration (0-2) ([7]; 1 mg/kg s.c., second study): 1.25
Fibrosis (0-2) ([7]; 10 mg/kg s.c., second study): 0.50*
Inflammation (0-3) ([7]; 10 mg/kg s.c., second study): 1.63*
Lesion depth (0-2) ([7]; 10 mg/kg s.c., second study): 0.69*
Total score ([7]; 10 mg/kg s.c., second study): 3.6*
Ulceration (0-2) ([7]; 10 mg/kg s.c., second study): 0.81*
Fibrosis (0-2) ([7]; 50 mg/kg s.c.): 0*
Inflammation (0-3) ([7]; 50 mg/kg s.c.): 1.05*#
Lesion depth (0-2) ([7]; 50 mg/kg s.c.): 0.2#
Total score ([7]; 50 mg/kg s.c.): 1.5*#
Ulceration (0-2) ([7]; 50 mg/kg s.c.): 0.25*#
Measurements of tissue injury, colon histology ([7]; composite of two subcutaneous dosing studies): effective in reducing several measurements of tissue injury
